Assay results published in paper PMC4163838 (The Biochemical journal, 2014).

Tests used:
[1] = target: T1, AKR1D1 (human steroid 5β-reductase) (Homo sapiens, UniProt P51857); assay: fluorescence titration; type: binding
T1 sequence (P51857 1-326): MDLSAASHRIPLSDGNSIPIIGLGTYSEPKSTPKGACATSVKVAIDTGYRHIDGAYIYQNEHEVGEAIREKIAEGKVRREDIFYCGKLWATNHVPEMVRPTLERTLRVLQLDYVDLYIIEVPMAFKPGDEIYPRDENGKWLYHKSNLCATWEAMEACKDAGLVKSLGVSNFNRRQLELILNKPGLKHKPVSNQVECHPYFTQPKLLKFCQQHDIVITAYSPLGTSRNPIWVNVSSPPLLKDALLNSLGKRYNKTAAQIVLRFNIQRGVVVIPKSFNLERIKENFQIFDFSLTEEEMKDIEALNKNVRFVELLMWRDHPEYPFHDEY

[2] = target: T1, AKR1D1 (human steroid 5β-reductase); assay: stopped-flow binding, energy transfer fluorescence; settings: biphasic binding to free enzyme; 37 °C, pH 6.0, 4 % acetonitrile
[3] = target: T1, AKR1D1 (human steroid 5β-reductase); assay: stopped-flow competition with excess NADPH, energy transfer fluorescence; type: binding; settings: dissociation rate constant from binary complex; 37 °C, pH 6.0, 4 % acetonitrile

Row | Structure (SMILES) | Kd [1] [µM] | further results
1 | CC(C)CCC[C@@H](C)[C@H]1CC[C@H]2[C@@H]3[C@H](O)CC4=CC(=O)CC[C@]4(C)[C@H]3CC[C@]12C [7α-hydroxycholestenone, 7α-hydroxy-4-cholesten-3-one] | 1.3 ± 0.1 | –
2 | NC(=O)C1=CN([C@@H]2O[C@H](COP(=O)(O)OP(=O)(O)OC[C@H]3O[C@@H](n4cnc5c(N)ncnc54)[C@H](OP(=O)(O)O)[C@@H]3O)[C@@H](O)[C@H]2O)C=CC1 [NADPH] | – | stopped-flow binding, energy transfer fluorescence [2]: AKR1D1 was mixed with NADPH and the process of NADPH binding to AKR1D1 was directly monitored
3 | NC(=O)c1ccc[n+]([C@@H]2O[C@H](COP(=O)(O)OP(=O)(O)OC[C@H]3O[C@@H](n4cnc5c(N)ncnc54)[C@H](OP(=O)(O)O)[C@@H]3O)[C@@H](O)[C@H]2O)c1 [NADP^+] | – | koff [3]: 0.36 ± 0.01 s⁻¹
4 | CC(C)(C)NC(=O)[C@H]1CC[C@H]2[C@@H]3CC[C@H]4NC(=O)C=C[C@]4(C)[C@H]3CC[C@]12C [finasteride] | 1.14 ± 0.09 | –
